In patent US9127016B2, “Small molecule inhibitors of Dusp6 and uses therefor” (University of Pittsburgh—Of the Commonwealth System of …, priority 2009, dated 2015):

Assays:
[1] = biological target: Dusp3/VHR (Homo sapiens, UniProt P51452); experiment: OMFP phosphatase assay, Dusp3/VHR; assay type: biochemical; details: n=3, OMFP substrate, 15.2 nM-300 μM; read-out: mean in vitro values, VHR
Method: (§1) Enzyme activities in the presence or absence of BCI were measured using the artificial substrate […] at concentrations equal to the Km of each enzyme (Cdc25B, PTP1B & Dusp3/VHR) and at optimal pH for individual enzyme activity in a 96-well microtiter plate assay based on previously described methods by Lazo et al. (J Med Chem 44, 4042-9 (2001) and Lazo, J. S. et al. Bioorg Med Chem 14, 5643-50 (2006)). Briefly, the standard assay conditions contained 0.02 mg/ml OMFP in assay buffer (30 mM Tris-HCl (pH8.0), 75 mM NaCl, 1 mM EDTA, 0.33% BSA and 1 mM DTT). Fluorescence emission was measured after a sixty-minute incubation period at ambient temperature using a multiwell plate reader (SpectraMax m5, […]; excitation 485 nm, emission 525 nm). Sodium orthovanadate (100 μM) was used as a positive control for full phosphatase inhibition. IC50 concentrations were determined from three experiments using 10 concentrations of BCI ranging from 300 μM to 15.2 nM and GraphPad Prism 5.0 software.

[2] = biological target: T1, PTP1B (Homo sapiens, UniProt P18031); experiment: OMFP phosphatase assay, PTP1B; assay type: biochemical; details: n=3, OMFP substrate, 15.2 nM-300 μM; read-out: mean in vitro values, PTP1B
T1 sequence (P18031 1-435): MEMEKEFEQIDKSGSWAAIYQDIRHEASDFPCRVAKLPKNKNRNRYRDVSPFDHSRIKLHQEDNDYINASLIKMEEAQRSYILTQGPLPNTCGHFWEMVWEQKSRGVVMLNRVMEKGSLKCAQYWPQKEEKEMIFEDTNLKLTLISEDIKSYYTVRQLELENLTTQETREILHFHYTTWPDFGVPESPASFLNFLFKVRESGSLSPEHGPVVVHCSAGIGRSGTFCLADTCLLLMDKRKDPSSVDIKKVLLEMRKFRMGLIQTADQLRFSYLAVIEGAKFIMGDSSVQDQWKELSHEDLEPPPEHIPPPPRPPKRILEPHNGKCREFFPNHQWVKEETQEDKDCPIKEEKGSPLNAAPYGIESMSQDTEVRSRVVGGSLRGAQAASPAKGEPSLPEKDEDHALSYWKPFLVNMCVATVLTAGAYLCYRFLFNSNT
Method: as §1

[3] = tested on: zebrafish embryo; experiment: Zebrafish embryo survival after prolonged exposure; assay type: in vivo
Method: We next addressed if BCI and related analogs are detrimental to zebrafish embryo survival after prolong exposure. […] The percentage of embryos that died after 24 hours treatment was 100% at 20 μM.

[4] = biological target: T2, recombinant His-tagged Dusp6 (Homo sapiens, UniProt Q16828); experiment: In vitro pERK2 dephosphorylation assay (Western blot); assay type: biochemical; details: 100 μM
T2 construct: His
T2 sequence (Q16828 1-381): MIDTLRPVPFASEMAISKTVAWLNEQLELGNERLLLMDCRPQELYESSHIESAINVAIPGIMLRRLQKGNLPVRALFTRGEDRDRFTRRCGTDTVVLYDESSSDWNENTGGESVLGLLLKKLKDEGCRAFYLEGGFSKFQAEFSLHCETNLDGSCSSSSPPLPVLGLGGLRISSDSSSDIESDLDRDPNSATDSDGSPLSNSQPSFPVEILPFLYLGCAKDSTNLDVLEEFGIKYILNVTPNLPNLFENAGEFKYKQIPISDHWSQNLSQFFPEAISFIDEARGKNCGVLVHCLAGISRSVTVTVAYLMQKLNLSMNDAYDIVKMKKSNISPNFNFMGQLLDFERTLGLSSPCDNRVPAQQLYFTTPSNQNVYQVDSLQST
Method: ERK dephosphorylation assays were performed as described previously with several modifications (Lazo, J. S. et al. J Pharmacol Exp Ther 322, 940-7 (2007)). Briefly, recombinant His-tagged Dusp6 (1.5 ng) was incubated for 20 minutes at 25° C. in the presence of 100 μM BCI, 100 μM ICD or 1 mM sodium orthovanadate. Tyrosine and threonine phosphorylated ERK2 (New England Biolabs; 10 ng) was added and reaction mixture (30 mM Tris-HCl, pH 7.0, 75 mM NaCl, 0.67 mM EDTA, 1 mM DTT and 0.033% bovine serum albumin) was incubated at 25° C. for a further 60 min. ERK desphosphorylation was determined by Western blotting using 10% Tris-glycine gels and a monoclonal phospho-p44/42 MAPK antibody (Cell Signaling) at 1:1000 dilution. Total ERK was measured as a loading control using an anti-ERK antibody (Cell Signaling).

[5] = tested on: FGF signaling (Tg(Dusp6:d2EGFP)pt6 reporter); experiment: Transgenic zebrafish chemical screen, d2EGFP fluorescence; assay type: in vivo; details: for d2EGFP fluorescence in treated transgenic embryos: 24 hpf embryos, 6-8 hours, analogs even at four-fold higher concentrations
Method: Tg(dusp6:d2EGFP)pt6 embryos were obtained by natural crossings and incubated at 28.5° C. until they reached 24 hpf. Five transgenic embryos were placed into each well from a 96-well plate in 200 μl of E3, and a 0.5% DMSO solution was added along with compound from each library at 10 μM. The NCI diversity set (NCl/NIH), the Natural Products library (MicroSource Discovery Systems Inc.) and Phosphatase targeted set (Chembridge) were screened in this study. (E)-2-Benzylidene-3-(cyclohexylamino)-2,3-dihydro-1H-inden-1-one (BCI; also known as NSC150117) was identified as a compound that enhanced fluorescence in treated transgenic embryos. Treated embryos were photographed under the same settings for exposure, gain and magnification for each picture using a MZFLIII (Leica) microscrope and fluorescent illumination for GFP using endow cube (Chroma Technology Corp., Rockingham, Vt.). Qimaging software and the Retiga Exi camera (Qimaging, Burnaby, BC Canada) were used to capture the images.
We previously described the generation of a transgenic zebrafish line, (Tg(Dusp6:d2EGFP)pt6) that expresses destabilized green fluorescent protein (d2EGFP) under the control of FGF signaling (Molina, G. A., et al. BMC Dev Biol 7, 62 (2007)). Using Tg(Dusp6:d2EGFP) embryos as a biosensor for FGF signaling, we screened over 5000 diverse compounds assembled from chemical libraries for small molecule modulators of this pathway. Five transgenic embryos at 24 hours post fertilization (hpf) were arrayed into each well of a 96-well plate containing test compounds at 10 μM. d2EGFP intensity in treated embryos was visually analyzed and compared to vehicle control (0.5% DMSO) after 6-8 hours. […] To confirm that BCI hyperactivated FGF signaling, we treated embryos prior to gastrulation (5 hpf), and we analyzed by whole mount in situ hybridization, the expression of ntl (zebrafish brachyury), a known FGF target gene (Latinkic, B. V. et al. Genes Dev 11, 3265-76 (1997)). […] We next determined the BCI structural features required to enhance FGF signaling. Two analogs, (E)-2-benzylidene-2,3-dihydro-1H-inden-1-one (BI) lacking the cyclohexylamino group, and 3-(cyclohexylamino)-2,3-dihydro-1H-inden-1-one (ICD) lacking the benzylidene group were synthesized).

Sequence of Dusp3/VHR (P51452 whole entry): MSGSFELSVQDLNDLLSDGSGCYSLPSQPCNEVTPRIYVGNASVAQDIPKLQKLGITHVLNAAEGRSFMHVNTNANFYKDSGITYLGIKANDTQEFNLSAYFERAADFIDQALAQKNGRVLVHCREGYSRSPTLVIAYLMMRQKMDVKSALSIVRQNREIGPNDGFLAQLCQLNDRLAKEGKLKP

## O=C1/C(=C/c2ccccc2)C(NC2CCCCC2)c2ccccc21 (stereo not drawn) [Compound 3, (E)-2-benzylidene-3-(cyclohexylamino)-2,3-dihydro-1H-inden-1-one]
[1]
  IC50: > 300 µM
[2]
  IC50: > 300 µM
[3]; 20 μM, 24 hours
  percentage of embryos that died after 24 hours treatment: 100%
[3]; high doses (>10 μM) for 24 hours
  effect of prolonged exposure on embryos: embryo defects, such as tail necrosis and even death
[4]
  suppression of Dusp6-mediated pERK2 dephosphorylation: specifically suppressed Dusp6 activity
[5]
  d2EGFP fluorescence in treated transgenic embryos: enhanced d2EGFP fluorescence in a concentration-dependent manner
[5]; BCI 10 μM, Fgf8-deficient embryos
  d2EGFP expression in the MHB of Tg(Dusp6:d2EGFP); ace mutant embryos: did not induce d2EGFP expression

## O=C1CC(NC2CCCCC2)c2ccccc21 (stereo not drawn) [Compound 17, 3-(Cyclohexylamino)-2,3-dihydro-1H-inden-1-one]
[4]
  suppression of Dusp6-mediated pERK2 dephosphorylation: did not
[5]
  d2EGFP fluorescence in treated transgenic embryos: inactive
